From PMC11178787, “Development of a natural product optimization strategy for inhibitors against MraY, a promising antibacterial target” (Nature Communications, 2024)
Values after ≈ are worked out from the molar mass of the structure shown.

Columns and labels:
MraYSA (S. aureus MraY) = MraYSA (S. aureus MraY) (Staphylococcus aureus, UniProt Q2FZ93); experiment: fluorescence assay of dansylated lipid I formation; type: biochemical
Enterococcus faecium 9 = experiment: microbe, parasite or virus in culture; design: CLSI broth microdilution MIC in MHB-II; conditions: Enterococcus faecium, 9, 18 h, read-out: MIC
Procedure: (§1) MICs were determined by a microdilution broth method as recommended by the CLSI with MHB-II. For MICs of stable analogues, a 2-fold dilution of each compound was prepared in DMSO at 100-fold of the final concentration. The strains were inoculated with 5 × 10^5 cfu/mL in 96-well plates (each 100 μL/well), and 1 μL of DMSO solutions of the samples were added (contained less than 1% DMSO). The plates were incubated at 37 °C for 18 h and then MICs were determined. MICs of stable analogues in Table 1 were the highest value in three trials. MICs in Supplementary Table 1 were determined in one trial.

Enterococcus faecium 1 = experiment: microbe, parasite or virus in culture; design: CLSI broth microdilution MIC in MHB-II; conditions: Enterococcus faecium, 1, 18 h, read-out: MIC
Procedure: as §1

[1] = tested on: T1, Staphylococcus aureus #2334; experiment: microbe, parasite or virus in culture; design: CLSI broth microdilution MIC in MHB-II; conditions: Staphylococcus aureus, 18 h, read-out: MIC
T1 construct: #2334
Procedure: as §1

[2] = tested on: T2, Staphylococcus aureus #1958; experiment: microbe, parasite or virus in culture; design: CLSI broth microdilution MIC in MHB-II; conditions: Staphylococcus aureus, 18 h, read-out: MIC
T2 construct: #1958
Procedure: as §1

[3] = tested on: T3, Staphylococcus aureus #2931; experiment: microbe, parasite or virus in culture; design: CLSI broth microdilution MIC in MHB-II; conditions: Staphylococcus aureus, 18 h, read-out: MIC
T3 construct: #2931
Procedure: as §1

Enterococcus faecium 7 = experiment: microbe, parasite or virus in culture; design: CLSI broth microdilution MIC in MHB-II; conditions: Enterococcus faecium, 7, 18 h, read-out: MIC
Procedure: as §1

Enterococcus faecalis 26 = tested on: T4, Enterococcus faecalis 26; experiment: microbe, parasite or virus in culture; design: CLSI broth microdilution MIC in MHB-II; conditions: Enterococcus faecalis, 26, 18 h, read-out: MIC
T4 construct: 26
Procedure: as §1

Enterococcus faecium 5 = experiment: microbe, parasite or virus in culture; design: CLSI broth microdilution MIC in MHB-II; conditions: Enterococcus faecium, 5, 18 h, read-out: MIC
Procedure: as §1

[4] = tested on: T5, Staphylococcus aureus #2934; experiment: microbe, parasite or virus in culture; design: CLSI broth microdilution MIC in MHB-II; conditions: Staphylococcus aureus, 18 h, read-out: MIC
T5 construct: #2934
Procedure: as §1

[5] = tested on: T6, Staphylococcus aureus #2071; experiment: microbe, parasite or virus in culture; design: CLSI broth microdilution MIC in MHB-II; conditions: Staphylococcus aureus, 18 h, read-out: MIC
T6 construct: #2071
Procedure: as §1

Enterococcus faecium 4 = experiment: microbe, parasite or virus in culture; design: CLSI broth microdilution MIC in MHB-II; conditions: Enterococcus faecium, 4, 18 h, read-out: MIC
Procedure: as §1

Enterococcus faecium 10 = tested on: T7, Enterococcus faecium 10; experiment: microbe, parasite or virus in culture; design: CLSI broth microdilution MIC in MHB-II; conditions: Enterococcus faecium, 10, 18 h, read-out: MIC
T7 construct: 10
Procedure: as §1

Enterococcus faecium 3 = experiment: microbe, parasite or virus in culture; design: CLSI broth microdilution MIC in MHB-II; conditions: Enterococcus faecium, 3, 18 h, read-out: MIC
Procedure: as §1

[6] = tested on: T8, Staphylococcus aureus #2932; experiment: microbe, parasite or virus in culture; design: CLSI broth microdilution MIC in MHB-II; conditions: Staphylococcus aureus, 18 h, read-out: MIC
T8 construct: #2932
Procedure: as §1

Enterococcus faecalis 28 = tested on: T9, Enterococcus faecalis 28; experiment: microbe, parasite or virus in culture; design: CLSI broth microdilution MIC in MHB-II; conditions: Enterococcus faecalis, 28, 18 h, read-out: MIC
T9 construct: 28
Procedure: as §1

Enterococcus faecalis 21 = tested on: T10, Enterococcus faecalis 21; experiment: microbe, parasite or virus in culture; design: CLSI broth microdilution MIC in MHB-II; conditions: Enterococcus faecalis, 21, 18 h, read-out: MIC
T10 construct: 21
Procedure: as §1

Enterococcus faecalis 22 = tested on: T11, Enterococcus faecalis 22; experiment: microbe, parasite or virus in culture; design: CLSI broth microdilution MIC in MHB-II; conditions: Enterococcus faecalis, 22, 18 h, read-out: MIC
T11 construct: 22
Procedure: as §1

Enterococcus faecalis 23 = tested on: T12, Enterococcus faecalis 23; experiment: microbe, parasite or virus in culture; design: CLSI broth microdilution MIC in MHB-II; conditions: Enterococcus faecalis, 23, 18 h, read-out: MIC
T12 construct: 23
Procedure: as §1

Enterococcus faecium 11 = tested on: T13, Enterococcus faecium 11; experiment: microbe, parasite or virus in culture; design: CLSI broth microdilution MIC in MHB-II; conditions: Enterococcus faecium, 11, 18 h, read-out: MIC
T13 construct: 11
Procedure: as §1

[7] = tested on: T14, Staphylococcus aureus #2310; experiment: microbe, parasite or virus in culture; design: CLSI broth microdilution MIC in MHB-II; conditions: Staphylococcus aureus, 18 h, read-out: MIC
T14 construct: #2310
Procedure: as §1

Enterococcus faecium 8 = experiment: microbe, parasite or virus in culture; design: CLSI broth microdilution MIC in MHB-II; conditions: Enterococcus faecium, 8, 18 h, read-out: MIC
Procedure: as §1

Enterococcus faecalis 27 = tested on: T15, Enterococcus faecalis 27; experiment: microbe, parasite or virus in culture; design: CLSI broth microdilution MIC in MHB-II; conditions: Enterococcus faecalis, 27, 18 h, read-out: MIC
T15 construct: 27
Procedure: as §1

[8] = tested on: T16, Staphylococcus aureus #2933; experiment: microbe, parasite or virus in culture; design: CLSI broth microdilution MIC in MHB-II; conditions: Staphylococcus aureus, 18 h, read-out: MIC
T16 construct: #2933
Procedure: as §1

in vitro = experiment: in vitro; design: WST-8 cell viability assay in HepG2 cells; conditions: human, hepg2 cells; read-out: IC50
Procedure: Cells were regularly passed to maintain exponential growth. HepG2 cells were sowed by 1.0 × 10^4 cells for each well in 96-well plate and cultured at 37 °C under 5% CO2 in air for 24 h. The cells were treated with a solution of test compounds in DMSO at various concentration and incubated at 37 °C under 5% CO2 in air for 24 h. After that, the WST-8 (Dojindo) cell proliferation assay was used. Cell viability was indicated as a percentage of the negative control (cells treated with DMSO only) and that value was fixed at 100%.

Chain of MraYSA (S. aureus MraY) (Q2FZ93 whole entry): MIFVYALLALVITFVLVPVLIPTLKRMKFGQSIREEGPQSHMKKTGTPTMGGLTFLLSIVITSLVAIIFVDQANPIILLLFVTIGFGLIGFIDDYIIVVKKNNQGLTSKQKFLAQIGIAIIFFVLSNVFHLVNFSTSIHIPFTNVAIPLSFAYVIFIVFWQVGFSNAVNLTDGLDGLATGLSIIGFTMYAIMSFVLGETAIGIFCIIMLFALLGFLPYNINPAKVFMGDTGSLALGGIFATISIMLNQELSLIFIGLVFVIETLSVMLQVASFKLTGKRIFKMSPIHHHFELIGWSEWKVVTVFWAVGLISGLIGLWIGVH

SMILES	IC50 (MraYSA (S. aureus MraY))	MIC (Enterococcus faecium 9)	MIC (Enterococcus faecium 1)	MIC [1]	MIC [2]	MIC [3]	MIC (Enterococcus faecium 7)	MIC (Enterococcus faecalis 26)	MIC (Enterococcus faecium 5)	MIC [4]	MIC [5]	MIC (Enterococcus faecium 4)	MIC (Enterococcus faecium 10)	MIC (Enterococcus faecium 3)	MIC [6]	MIC (Enterococcus faecalis 28)	MIC (Enterococcus faecalis 21)	MIC (Enterococcus faecalis 22)	MIC (Enterococcus faecalis 23)	MIC (Enterococcus faecium 11)	further results
CCCCCCCCCCCCCCCC(=O)N[C@@H](CCCCN)C(=O)NCc1cccc(CN[C@H](C(=O)O)[C@H](O[C@@H]2O[C@H](CN)[C@@H](O)[C@H]2O)[C@H]2O[C@@H](n3ccc(=O)[nH]c3=O)[C@H](O)[C@@H]2O)c1 [compound 2, analogue 2]	0.0059 µM	0.5 µg/mL (≈ 0.535 µM)	1 µg/mL (≈ 1.07 µM)	1 µg/mL (≈ 1.07 µM)	1 µg/mL (≈ 1.07 µM)	0.5 µg/mL (≈ 0.535 µM)	2 µg/mL (≈ 2.14 µM)	0.13 µg/mL (≈ 0.139 µM)	1 µg/mL (≈ 1.07 µM)	0.5 µg/mL (≈ 0.535 µM)	1 µg/mL (≈ 1.07 µM)	0.5 µg/mL (≈ 0.535 µM)	1 µg/mL (≈ 1.07 µM)	1 µg/mL (≈ 1.07 µM)	1 µg/mL (≈ 1.07 µM)	< 0.06 µg/mL	0.13 µg/mL (≈ 0.139 µM)	0.13 µg/mL (≈ 0.139 µM)	0.25 µg/mL (≈ 0.268 µM)	1 µg/mL (≈ 1.07 µM)	MIC [7]: 2 µg/mL (≈ 2.14 µM); MIC (Enterococcus faecium 8): 0.5 µg/mL (≈ 0.535 µM); MIC (Enterococcus faecalis 27): 0.25 µg/mL (≈ 0.268 µM); MIC [8]: 0.5 µg/mL (≈ 0.535 µM); CC50 at 24 h (in vitro): 16 µM
CCCCCCCCCCCCCCCC(=O)N[C@@H](CCCNC(=N)N)C(=O)NCc1cccc(CN[C@H](C(=O)O)[C@H](O[C@@H]2O[C@H](CN)[C@@H](O)[C@H]2O)[C@H]2O[C@@H](n3ccc(=O)[nH]c3=O)[C@H](O)[C@@H]2O)c1 [compound 4, analogue 4]	0.005 µM	0.5 µg/mL (≈ 0.52 µM)	1 µg/mL (≈ 1.04 µM)	2 µg/mL (≈ 2.08 µM)	2 µg/mL (≈ 2.08 µM)	1 µg/mL (≈ 1.04 µM)	1 µg/mL (≈ 1.04 µM)	0.25 µg/mL (≈ 0.26 µM)	1 µg/mL (≈ 1.04 µM)	1 µg/mL (≈ 1.04 µM)	1 µg/mL (≈ 1.04 µM)	0.5 µg/mL (≈ 0.52 µM)	1 µg/mL (≈ 1.04 µM)	1 µg/mL (≈ 1.04 µM)	2 µg/mL (≈ 2.08 µM)	< 0.06 µg/mL	0.13 µg/mL (≈ 0.135 µM)	0.13 µg/mL (≈ 0.135 µM)	0.13 µg/mL (≈ 0.135 µM)	1 µg/mL (≈ 1.04 µM)	MIC [7]: 2 µg/mL (≈ 2.08 µM); MIC (Enterococcus faecium 8): 0.5 µg/mL (≈ 0.52 µM); MIC (Enterococcus faecalis 27): < 0.06 µg/mL; MIC [8]: 1 µg/mL (≈ 1.04 µM); CC50 at 24 h (in vitro): 19 µM
